Test: RP, Hichrom Alltima HP C18, 150 × 2.1 mm, 3 µm, 0.2 mL/min, estimated dead time 1.7 min; A: 90% water + 5% acetonitrile + 5% formic acid; B: acetonitrile; gradient (min/%B) 0/0 5/10 25/20 30/25 45/70 65/0
Settings: stereoisomer not certain

SMILES | LC retention time
O=C(O)CC(O)(CC(=O)O)C(=O)O [citric acid] | 3.04 min
OCC1OC(Oc2cc3c(O)cc(O)cc3[o+]c2-c2ccc(O)c(O)c2)C(O)C(O)C1O (configuration not stated) [cyanidin-3-O-glucoside] | 14.4 min
O=C(C=Cc1ccc(O)cc1)OCC1OC(Oc2cc3c(O)cc(=O)cc-3oc2-c2ccc(O)c(O)c2)C(O)C(O)C1O (stereo not drawn) [cyanidin-(coumaroyl)-3-O glucoside, trans isomer] | 27.6 min
OCC1OC(Oc2cc3c(O)cc(O)cc3[o+]c2-c2cc(O)c(O)c(O)c2)C(O)C(O)C1O (configuration not stated) [delfinidin-3-O-glucoside] | 12.5 min
OCC1OC(OC2(CO)OC(CO)C(O)C2O)C(O)C(O)C1O (configuration not stated) [di-hexose (sucrose)] | 2.52 min
CC1OC(OC2C(=O)c3c(O)cc(O)cc3OC2c2ccc(O)c(O)c2)C(O)C(O)C1O (configuration not stated) [dihydroquercetin-O-deoxyhexoside (astilbin)] | 19.8 min
O=C(O)C(O)C(O)C(O)C(O)CO (configuration not stated) [gluconic acid] | 2.37 min
NC(CCC(=O)NC(CS)C(=O)NCC(=O)O)C(=O)O (configuration not stated) [glutathione] | 3.04 min
OCC1OC(O)C(O)C(O)C1O (configuration not stated) [hexose] | 2.4 min
O=C(O)CC(O)C(=O)O (configuration not stated) [malic acid] | 2.72 min
COc1cc(-c2oc3cc(=O)cc(O)c-3cc2OC2OC(CO)C(O)C(O)C2O)cc(OC)c1O (configuration not stated) [malvidin-3-O-glucoside] | 18 min
O=C(OC1OC(CO)C(O)C(O)C1O)c1cc(O)c(O)c(O)c1 (configuration not stated) [monogalloyl glucose] | 3.53 min
COc1cc(-c2[o+]c3cc(O)cc(O)c3cc2OC2OC(CO)C(O)C(O)C2O)ccc1O (configuration not stated) [peonidin-3-O-glucoside] | 17.2 min
COc1cc(-c2[o+]c3cc(O)cc(O)c3cc2OC2OC(CO)C(O)C(O)C2O)cc(O)c1O (configuration not stated) [petunidin-3-O-glucoside] | 15.6 min
O=C(O)C1OC(Oc2c(-c3ccc(O)c(O)c3)oc3cc(O)cc(O)c3c2=O)C(O)C(O)C1O (configuration not stated) [quercetin glucuronide] | 20 min
O=C(O)C(O)C(O)C(=O)O (configuration not stated) [tartaric acid] | 2.52 min
NC(Cc1cn(C2OC(CO)C(O)C(O)C2O)c2ccccc12)C(=O)O (configuration not stated) [tryptophan-N-glucoside] | 15.8 min

— the RepoRT retention time repository (doi:10.1186/gb-2013-14-6-r54)
